# According to patent publication US8512723B2, “Antimicrobial compositions and methods” (3M Innovative Properties Company, priority 2003, dated 2013):
# Experiments:
# 30 MRSA isolates = experiment: Emergence of Resistance Test; assay type: cell-based, Staphylococcus aureus
# Procedure: (§1) Overnight cultures of each of 30 MRSA isolates and 30 Methicillin Susceptible Stapyloccus aureus (MSSA) isolates were grown in Mueller-Hinton broth (MHB) at 35° C. in room air. Bacteria in the broth were concentrated by centrifugation for 15 minutes at 2,200 revolustions per minute (rpm). The spent broth was decanted and replaced with fresh MHB containing 0.5 μL per mL of each of three antimicrobial compositions (Examples 31(IPA), 32(IPA), and 33(IPA)) or 0.125 μg/mL of mupirocin lithium salt (Sigma Aldrich, Milwaukee, Wis.). The cultures were returned to the incubator for 18 hours. Following incubation, each culture was again centrifuged and the bacterial pellet was divided into two aliquots. One aliquot was resuspended in MHB containing fresh antimicrobial compositions at twice the previous concentrations and returned to the incubator for continued exposure.
# (§2) The second aliquot was screened for MRSA and MSSA by incubation with 2 mL of MHB containing 4 μg/mL of mupirocin or 1,200 μg/mL of Examples 31(IPA) or 32(IPA) or 33 (IPA). The resistance screens were incubated overnight at 35° C. in room air. After incubation, each screen was subcultured to fresh MHB and incubated for 4 to 6 hours. Minimum inhibitory concentration (MIC) testing was performed on logarithmically growing bacteria recovered from the screen. This procedure was repeated for 8 days. After 8 days of serial exposure, each bacterial pellet was resuspended in bland MHB and incubated overnight. The MIC of each antimicrobial composition or mupirocin was determined as the MIC90 (range) before and daily during serial passage.
# (§3) The IPA modified antimicrobial compositions were tested using the Emergence of Resistance Test. The results are shown at baseline (T0), after eight days (T8) and the ratio of T0 to T8 in Table 9d.
# [1] = tested on: 30 Methicillin Susceptible Stapyloccus aureus (MSSA) isolates; experiment: Emergence of Resistance Test; assay type: cell-based, Staphylococcus aureus
# Procedure: as §1, §2, §3
# [2] = tested on: MRSA #561 (clinical isolate of methicillin resistant staphylococcus); experiment: Murine MRSA nasal colonization model; assay type: in vivo, mice; settings: 10 μL per nare, three times daily for two days; nares cultured three days after treatment
# Procedure: 1999 Infect and Immunity 67(10) 5001-5006. Prior to evaluation of the active compositions the lowest number of S. aureus required to establish nasal colonization in 70% of mice detectable 5 days after challenge and persisting at least 10 days after challenge was determined. This was using an innoculum of 10^8 cfu/nare. Mice (239 described as 25 g to 30 g Hsd:ICR) were challenged intranasally with 10^8 MRSA #561 (a clinical isolate of methicillin resistant staphylococcus obtained from Mayo Clinic, Rochester, Minn.) and arbitrarily assigned to one of five treatment regimens: mupirocin ointment, bland ointment, antimicrobial compositions of Examples 31, 32, and 33. The bland ointment consisted of petrolatum (89%), glycerin (10%) and DOSS (1%). Mice received either no treatment (none) or treatment with 10 μL per nare of warmed (42° C.) ointment (one of five) to each nare, three times daily for two days Three days after treatment, both anterior nares were swabbed and cultured for MRSA. Colonies appearing to be S. aureus were confirmed with a latex agglutination test. S. aureus was detected in 160 colonization cultures from 239 mice challenged. These mice continued to be studied. The results of the treatments are listed in Table 9e as the number of animals with no MRSA detected after treatment (successful), the percent of the animals treated successfully, the number of animals with MRSA (failure), and the percent of animals whose treatment failed.
# [3] = MIC90 after eight days (T8) of serial exposure, unit assumed
# [4] = MIC90 at baseline (T0), unit assumed
compound,measurement,setting,value
"C/C(=C\C(=O)OCCCCCCCCC(=O)O)C[C@@H]1OC[C@H](C[C@@H]2O[C@H]2[C@@H](C)[C@H](C)O)[C@@H](O)[C@H]1O [Mupirocin, mupirocin]",MRSA Final (T8) MIC,30 MRSA isolates; [3],64 µg/mL
same,MRSA Initial (T0) MIC,30 MRSA isolates; [4],0.25 µg/mL
same,Increase of the MIC,30 MRSA isolates; eight days of serial exposure,increased dramatically
same,MSSA Final (T8) MIC,[1]; [3],128 µg/mL
same,MSSA Initial (T0) MIC,[1]; [4],0.25 µg/mL
same,MSSA MIC fold increase (T8/T0),[1]; ratio of MIC at T0 and T8,512
same,Number of Mice with MRSA,[2],19
same,Number of Mice without MRSA,[2],19
same,Percent Treated Successfully,[2],50%
same,Percent Whose Treatment Failed,[2],50%
